Results from US20260053811A1, “METHODS OF TREATING HYPERTENSION IN OBESE SUBJECTS” (Mineralys Therapeutics, Inc., priority 2022, published 2026).
Marks after values point to notes of the source that are not given here.

Tested on: hypertensive subjects
Test: Seated automated office blood pressure (AOBP) in randomized, placebo-controlled, dose-ranging study
Format: in vivo, human
Design: Difference from placebo in change in blood pressure: unit not given here
Protocol: A randomized, double-blinded, placebo-controlled, dose-ranging, multicenter study was conducted to evaluate the effect of orally administered Compound A HBr on blood pressure for the treatment of hypertension in male and female subjects ≥18 years of age.
The study consists of two parts. For enrollment into Part 1 of the study, a subject's value of plasma renin activity (PRA) must be ≤1 ng/mL/h based on morning measurement. If the value of PRA >1 ng/mL/h based on morning measurement, then subjects may be eligible to enter Part 2 of the study.
For Part 1, 163 enrolled subjects ≥18 years of age were randomized into 6 equal treatment groups (1:1:1:1:1:1) to 12.5 mg BID, 25 mg BID, 12.5 mg QD, 50 mg QD, 100 mg QD, or placebo. After a review of interim clinical data, the 2 lowest dose levels (12.5 mg QD and 12.5 mg BID) were stopped for future randomization due to a lack of consistent meaningful reduction of blood pressure, but the patients randomized to that point remained in the study through completion. Thus, after the review of interim clinical data, subjects were randomized into 4 equal treatment groups (1:1:1:1) to 25 mg BID, 50 mg QD, 100 mg QD, or placebo.
For Part 2, 36 enrolled subjects ≥18 years of age were randomized (5:1) to either 100 mg QD Compound A HBr or placebo such that the Compound A HBr treatment group consisted of approximately 30 subjects and the placebo treatment group will consist of approximately 6 subjects.
Subjects orally administered the assigned study drug (Compound A HBr or placebo) according to the assigned dosing regimen for 8 weeks beginning on Study Day 1. All subjects in Part 1 (regardless of dosing group) received BID dosing to preserve the integrity of the blind; active drug is administered as the morning dose for all QD dose groups. Subjects returned to the research facility or were seen by the clinical investigator or approved home health care professional at the end of Study Weeks 1, 2, 3, 4, 5, 6, 7, and 8 (±2 days) for protocol-defined efficacy and safety assessments and procedures, assessment of adverse events (AEs), and confirmation of compliance with study drug usage. Subjects also completed a telephone visit and blood pressure (BP) check at home approximately 3 days post last dose of study drug. Subjects attended up to 14 full clinic visits, including a pre-Screening visit, a Screening/start of Placebo Run-in visit, a second visit during Placebo Run-in, a clinic visit to initiate the ABPM procedure, a Randomization visit, 8 weekly visits during double-blind treatment, and an end-of-study visit scheduled 4 weeks after the last study treatment for final efficacy and safety assessments.
An automated oscillometric sphygmomanometer device was used to measure the subjects' systolic and diastolic blood pressure in office after approximately 5 minutes of rest in the seated position.
The primary endpoint is the change in office-measured (mean of last 2 of 5 unattended measurements using an automated oscillometric sphygmomanometer device after approximately 5 minutes of rest in the seated position) systolic blood pressure (SBP) from baseline to the end of Study Week 8.
Secondary endpoints of this study were: • (a) Change in 24-hour ambulatory blood pressure monitoring (ABPM) parameters (systolic and diastolic) from baseline to the end of Study Week 7. • (b) Change in office-measured SBP from baseline to the end of Study Weeks 1, 2, 3, 4, 5, 6, and 7. • (c) Change in office-measured diastolic blood pressure (DBP) from baseline to the end of Study Weeks 1, 2, 3, 4, 5, 6, 7, and 8. • (d) Proportion of subjects who achieve office-measured BP of ≤130/80 mm Hg by the end of Study Week 8.

CC(=O)N[C@H]1CC[C@H](NC(=O)CN2CCN(c3nncc(-c4ccc(C)cc4)n3)CC2)CC1 [Compound A HBr]
Difference from placebo in change in blood pressure (25 mg BID, Thiazide Yes): −8.3 | Seated AOBP DBP change from baseline (CFB), Mean (SD) (25 mg BID, Week 1, Part 1, FAS): −2.22 (5.68) mmHg | Seated AOBP DBP, Mean (SD) (25 mg BID, Week 1, Part 1, FAS): 76.70 (9.28) mmHg | Seated AOBP SBP change from baseline (CFB), Mean (SD) (25 mg BID, Week 1, Part 1, FAS): −6.57 (10.78) mmHg | Seated AOBP SBP, Mean (SD) (25 mg BID, Week 1, Part 1, FAS): 134.37 (14.17) mmHg | Seated AOBP DBP change from baseline (CFB), Mean (SD) (25 mg BID, Week 2, Part 1, FAS): −2.42 (8.03) mmHg | Seated AOBP DBP, Mean (SD) (25 mg BID, Week 2, Part 1, FAS): 76.50 (10.74) mmHg | Seated AOBP SBP change from baseline (CFB), Mean (SD) (25 mg BID, Week 2, Part 1, FAS): −6.37 (13.43) mmHg | Seated AOBP SBP, Mean (SD) (25 mg BID, Week 2, Part 1, FAS): 134.57 (17.75) mmHg | Seated AOBP DBP change from baseline (CFB), Mean (SD) (25 mg BID, Week 3, Part 1, FAS): −0.55 (14.99) mmHg | Seated AOBP DBP, Mean (SD) (25 mg BID, Week 3, Part 1, FAS): 78.72 (15.35) mmHg | Seated AOBP SBP change from baseline (CFB), Mean (SD) (25 mg BID, Week 3, Part 1, FAS): −5.34 (18.35) mmHg | Seated AOBP SBP, Mean (SD) (25 mg BID, Week 3, Part 1, FAS): 136.34 (19.78) mmHg | LSM Δ with Placebo, seated AOBP DBP (MMRM) (25 mg BID, Week 4, Part 1, FAS): −5.94 mmHg | Modelled (MMRM) LSM (SEM) change from baseline, seated AOBP DBP (25 mg BID, Week 4, Part 1, FAS): −6.47 (1.41) mmHg | Seated AOBP DBP change from baseline (CFB), Mean (SD) (25 mg BID, Week 4, Part 1, FAS): −5.80 (7.01) mmHg | Seated AOBP DBP, Mean (SD) (25 mg BID, Week 4, Part 1, FAS): 73.26 (7.79) mmHg | Seated AOBP SBP change from baseline (CFB), Mean (SD) (25 mg BID, Week 4, Part 1, FAS): −9.63 (12.34) mmHg | Seated AOBP SBP, Mean (SD) (25 mg BID, Week 4, Part 1, FAS): 131.85 (13.59) mmHg | Seated AOBP DBP change from baseline (CFB), Mean (SD) (25 mg BID, Week 5, Part 1, FAS): −2.82 (8.82) mmHg | Seated AOBP DBP, Mean (SD) (25 mg BID, Week 5, Part 1, FAS): 76.29 (9.91) mmHg | Seated AOBP SBP change from baseline (CFB), Mean (SD) (25 mg BID, Week 5, Part 1, FAS): −9.16 (15.72) mmHg | Seated AOBP SBP, Mean (SD) (25 mg BID, Week 5, Part 1, FAS): 132.25 (16.30) mmHg | Seated AOBP DBP change from baseline (CFB), Mean (SD) (25 mg BID, Week 6, Part 1, FAS): −3.07 (8.82) mmHg | Seated AOBP DBP, Mean (SD) (25 mg BID, Week 6, Part 1, FAS): 76.04 (10.57) mmHg | Seated AOBP SBP change from baseline (CFB), Mean (SD) (25 mg BID, Week 6, Part 1, FAS): −7.09 (11.66) mmHg | Seated AOBP SBP, Mean (SD) (25 mg BID, Week 6, Part 1, FAS): 134.32 (13.96) mmHg | Seated AOBP DBP change from baseline (CFB), Mean (SD) (25 mg BID, Week 7, Part 1, FAS): −4.87 (8.84) mmHg | Seated AOBP DBP, Mean (SD) (25 mg BID, Week 7, Part 1, FAS): 73.89 (10.76) mmHg | Seated AOBP SBP change from baseline (CFB), Mean (SD) (25 mg BID, Week 7, Part 1, FAS): −11.00 (13.60) mmHg | Seated AOBP SBP, Mean (SD) (25 mg BID, Week 7, Part 1, FAS): 130.74 (15.42) mmHg | LSM Δ from Placebo, change from baseline in seated AOBP SBP (MMRM) (25 mg BID, Week 8, Part 1, FAS): −6.97 mmHg | LSM Δ with Placebo, seated AOBP DBP (MMRM) (25 mg BID, Week 8, Part 1, FAS): −2.49 mmHg | Modelled (MMRM) LSM (SEM) change from baseline, seated AOBP DBP (25 mg BID, Week 8, Part 1, FAS): −4.12 (1.68) mmHg | Modelled (MMRM) LSM (SEM) change from baseline, seated AOBP SBP (25 mg BID, Week 8, Part 1, FAS): −11.07 (2.65) mmHg | Seated AOBP DBP change from baseline (CFB), Mean (SD) (25 mg BID, Week 8, Part 1, FAS): −3.68 (11.71) mmHg | Seated AOBP DBP, Mean (SD) (25 mg BID, Week 8, Part 1, FAS): 75.43 (13.06) mmHg | Seated AOBP SBP change from baseline (CFB), Mean (SD) (25 mg BID, Week 8, Part 1, FAS): −10.13 (14.02) mmHg | Seated AOBP SBP, Mean (SD) (25 mg BID, Week 8, Part 1, FAS): 131.29 (16.59) mmHg | Subjects with seated AOBP SBP/DBP ≤130/80 mmHg: No (25 mg BID, Week 8, Part 1, FAS): 17 (56.7) n (%) | Subjects with seated AOBP SBP/DBP ≤130/80 mmHg: Yes (25 mg BID, Week 8, Part 1, FAS): 13 (43.3) n (%) | Difference from placebo in change in blood pressure (50 mg QD, BMI 25-30): 2.0 | Difference from placebo in change in blood pressure (50 mg QD, BMI >30): −16.6* | Mean placebo-adjusted reduction in AOBP SBP (50 mg QD, Part 1, Week 8): 9.58 mmHg | Placebo-adjusted reduction in AOBP DBP, thiazide diuretic use at baseline (50 mg QD, Part 1, Week 8): −7.7 mmHg | Placebo-adjusted reduction in AOBP SBP from baseline, by baseline AOBP SBP tertile (50 mg QD, Part 1, Week 8): −19.9 mmHg
